Measurements: patent publication US20070184554A1, “Biomarker of improved intestinal function” (NPS ALLELIX CORP., priority 2005, published 2007)

Key:
plasma citrulline = assay: Plasma citrulline levels in human Crohn's Disease patients treated with Teduglutide (randomized, double-blind, placebo-controlled clinical study); format: in vivo; settings: for Baseline plasma citrulline levels, mean: baseline (Dosing Day 1), subjects with moderately active CD; for 2-week plasma citrulline levels, mean: week 2; for 2-week plasma citrulline levels, mean / 4-week plasma citrulline levels, mean / 8-week plasma citrulline levels, mean: subcutaneous injection daily, CD subjects; for 4-week plasma citrulline levels, mean: week 4; for 8-week plasma citrulline levels, mean: week 8
Description: In a further experiment plasma citrulline levels in human patients treated with Teduglutide for the treatment of Crohn's Disease (CD) were determined. Subjects with moderately active CD were treated in a randomized, double-blind, placebo-controlled clinical study to assess the activity of 3 different doses of Teduglutide compared to placebo. The primary objective of the study was to assess the efficacy and the secondary objectives were to assess the safety and tolerability of the different doses of Teduglutide as compared to placebo. Following a screening visit to evaluate whether subjects met the inclusion/exclusion criteria, the study ran over a period of up to 12 weeks, including visits at baseline/Dosing Day 1, Weeks 2, 4, and 8, and one at the end of the follow-up period at Week 12. Teduglutide doses administered by subcutaneous injection were 0.05, 0.10 and 0.20 mg/kg on a daily basis for 8 weeks. The primary efficacy variable used was the percentage of subjects with a response, defined as a 100-point or greater reduction in the subject's CDAI score at dosing Week 8 from their baseline score or a CDAI score less than 150 at Week 8.

arrhythmia incidence = settings: CAST, cited from earlier work; for mortality in the drug treatment groups: fold greater
bone mineral density = settings: administration of fluoride, cited from earlier work

With `CC[C@H](C)[C@H](NC(=O)[C@H](Cc1ccccc1)NC(=O)[C@H](CC(=O)O)NC(=O)[C@H](CCCNC(=N)N)NC(=O)[C@H](C)NC(=O)[C@H](C)NC(=O)[C@H](CC(C)C)NC(=O)[C@H](CC(N)=O)NC(=O)[C@H](CC(=O)O)NC(=O)[C@H](CC(C)C)NC(=O)[C@@H](NC(=O)[C@@H](NC(=O)[C@H](CC(N)=O)NC(=O)[C@H](CCSC)NC(=O)[C@H](CCC(=O)O)NC(=O)[C@H](CC(=O)O)NC(=O)[C@H](CO)NC(=O)[C@H](Cc1ccccc1)NC(=O)[C@H](CO)NC(=O)CNC(=O)[C@H](CC(=O)O)NC(=O)CNC(=O)[C@@H](N)Cc1c[nH]cn1)[C@@H](C)O)[C@@H](C)CC)C(=O)N[C@@H](CC(N)=O)C(=O)N[C@@H](Cc1c[nH]c2ccccc12)C(=O)N[C@@H](CC(C)C)C(=O)N[C@H](C(=O)N[C@@H](CCC(N)=O)C(=O)N[C@H](C(=O)N[C@@H](CCCCN)C(=O)N[C@H](C(=O)N[C@H](C(=O)N[C@@H](CC(=O)O)C(=O)O)[C@@H](C)O)[C@@H](C)CC)[C@@H](C)O)[C@@H](C)CC` [Teduglutide] the “Baseline plasma citrulline levels, mean” value (plasma citrulline; 0.05 mg group) was 21.6 µmol/L, the “Baseline plasma citrulline levels, mean” value (plasma citrulline; 0.10 mg group) was 24.7 µmol/L and the “Baseline plasma citrulline levels, mean” value (plasma citrulline; 0.20 mg group) was 24.5 µmol/L. The “mean citrulline level, change” value (plasma citrulline; from baseline to week 8, teduglutide-treated groups, placebo group remains the same) was “increases”, the “2-week plasma citrulline levels, mean” value (plasma citrulline; 0.05 mg group) was 30.3 µmol/L and the “2-week plasma citrulline levels, mean” value (plasma citrulline; 0.10 mg group) was 36.9 µmol/L. The “2-week plasma citrulline levels, mean” value (plasma citrulline; 0.20 mg group) was 32.7 µmol/L, the “4-week plasma citrulline levels, mean” value (plasma citrulline; 0.05 mg group) was 34.5 µmol/L and the “4-week plasma citrulline levels, mean” value (plasma citrulline; 0.10 mg group) was 49.1 µmol/L. For the same compound, the “4-week plasma citrulline levels, mean” value (plasma citrulline; 0.20 mg group) was 38.8 µmol/L, the “8-week plasma citrulline levels, mean” value (plasma citrulline; 0.05 mg group) was 37.9 µmol/L and the “8-week plasma citrulline levels, mean” value (plasma citrulline; 0.10 mg group) was 46.0 µmol/L. For the same compound, the “8-week plasma citrulline levels, mean” value (plasma citrulline; 0.20 mg group) was 41.8 µmol/L.

In the case of `O=C(NCC1CCCCN1)c1cc(OCC(F)(F)F)ccc1OCC(F)(F)F` (stereo not shown) [flecainide], the arrhythmia incidence (arrhythmia incidence) is given as “significant reduction” and the “mortality in the drug treatment groups” value (arrhythmia incidence) is given as 3 fold.

For `F` [fluoride], the fracture risk (bone mineral density; also weaker bone strength) is given as “increased fracture risk” and the bone mineral density (bone mineral density) is given as “significant increases”.

In the case of `COc1ccc(C(=O)Nc2ccccc2CCC2CCCCN2C)cc1` (stereo not shown) [encainide], the arrhythmia incidence (arrhythmia incidence) is listed as “significant reduction” and the “mortality in the drug treatment groups” value (arrhythmia incidence) is listed as 3 fold.
